Data reported in ChEMBL document CHEMBL5579877, “Design and Evaluation of 3-Phenyloxetane Derivative Agonists of the Glucagon-Like Peptide-1 Receptor” (J Med Chem, 2024).
pIC50: −log10 of the molar value. Active and inactive are the calls of the source. No cut-off for these calls is given here.

Key:
[1] = Tmax in cynomolgus monkey at 2 mg/kg, iv; type: ADME, organism-based, Macaca fascicularis; conditions: in vivo
[2] = Cmax in ICR mouse at 5 mg/kg, po by LC-MS/MS analysis; type: ADME, organism-based; conditions: in vivo
[3] = Cmax in rat at 5 mg/kg, po by LC-MS/MS analysis; type: ADME, organism-based; conditions: in vivo
Cytochrome P450 3A4 [4] = target: T1, Cytochrome P450 3A4 (Homo sapiens, UniProt P08684); experiment: Inhibition of CYP3A4 in human liver microsomes using midazolam as substrate preincubated for 5 mins followed by NADPH addition and measured after 5 mins by LC-MS/MS analysis; type: ADME, Microsome
T1 sequence (P08684 whole entry): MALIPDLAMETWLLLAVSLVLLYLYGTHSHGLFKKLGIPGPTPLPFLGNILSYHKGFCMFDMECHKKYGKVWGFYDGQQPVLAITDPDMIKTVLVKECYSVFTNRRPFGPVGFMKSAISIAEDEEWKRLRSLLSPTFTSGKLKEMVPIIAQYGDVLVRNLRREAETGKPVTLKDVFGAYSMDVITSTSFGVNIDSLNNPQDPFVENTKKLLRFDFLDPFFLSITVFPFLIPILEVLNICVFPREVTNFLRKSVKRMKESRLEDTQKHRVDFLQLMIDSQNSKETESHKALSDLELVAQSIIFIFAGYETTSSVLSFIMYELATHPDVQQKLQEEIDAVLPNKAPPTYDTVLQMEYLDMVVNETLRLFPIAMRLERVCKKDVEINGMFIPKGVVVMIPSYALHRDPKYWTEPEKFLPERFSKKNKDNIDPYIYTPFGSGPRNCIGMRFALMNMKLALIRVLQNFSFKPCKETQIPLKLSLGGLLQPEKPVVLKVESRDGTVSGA

[5] = Metabolic stability in human liver microsomes assessed as half life at […] incubated upto 45 mins in presence of NADPH by LC-MS/MS analysis; type: ADME, Microsome
Cytochrome P450 3A4 [6] = target: T1, Cytochrome P450 3A4; experiment: Inhibition of CYP3A4 in human liver microsomes using testosterone as substrate preincubated for 5 mins followed by NADPH addition and measured after 5 mins by LC-MS/MS analysis; type: ADME, Microsome
Cytochrome P450 1A2 = target: T2, Cytochrome P450 1A2 (Homo sapiens, UniProt P05177); experiment: Inhibition of CYP1A2 in human liver microsomes using phenacetin as substrate preincubated for 5 mins followed by NADPH addition and measured after 10 mins by LC-MS/MS analysis; type: ADME, Microsome
T2 sequence (P05177 whole entry): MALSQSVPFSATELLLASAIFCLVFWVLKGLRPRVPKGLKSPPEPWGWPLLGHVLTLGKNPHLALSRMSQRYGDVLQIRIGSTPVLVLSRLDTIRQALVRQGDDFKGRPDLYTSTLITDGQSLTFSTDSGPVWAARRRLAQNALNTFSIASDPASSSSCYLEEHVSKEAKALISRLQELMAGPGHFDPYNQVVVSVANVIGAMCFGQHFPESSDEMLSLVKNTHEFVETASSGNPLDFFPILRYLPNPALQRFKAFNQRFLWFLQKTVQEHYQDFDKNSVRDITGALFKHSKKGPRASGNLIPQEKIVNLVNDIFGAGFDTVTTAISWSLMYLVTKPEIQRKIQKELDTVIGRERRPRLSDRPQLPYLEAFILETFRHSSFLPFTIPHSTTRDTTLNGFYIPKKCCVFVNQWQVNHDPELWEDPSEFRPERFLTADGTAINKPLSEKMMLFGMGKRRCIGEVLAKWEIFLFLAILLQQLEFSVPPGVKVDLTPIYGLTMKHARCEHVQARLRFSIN

Cytochrome P450 2C8 = target: T3, Cytochrome P450 2C8 (Homo sapiens, UniProt P10632); experiment: Inhibition of CYP2C8 in human liver microsomes using paclitaxel as substrate preincubated for 5 mins followed by NADPH addition and measured after 20 mins by LC-MS/MS analysis; type: ADME, Microsome
T3 sequence (P10632 whole entry): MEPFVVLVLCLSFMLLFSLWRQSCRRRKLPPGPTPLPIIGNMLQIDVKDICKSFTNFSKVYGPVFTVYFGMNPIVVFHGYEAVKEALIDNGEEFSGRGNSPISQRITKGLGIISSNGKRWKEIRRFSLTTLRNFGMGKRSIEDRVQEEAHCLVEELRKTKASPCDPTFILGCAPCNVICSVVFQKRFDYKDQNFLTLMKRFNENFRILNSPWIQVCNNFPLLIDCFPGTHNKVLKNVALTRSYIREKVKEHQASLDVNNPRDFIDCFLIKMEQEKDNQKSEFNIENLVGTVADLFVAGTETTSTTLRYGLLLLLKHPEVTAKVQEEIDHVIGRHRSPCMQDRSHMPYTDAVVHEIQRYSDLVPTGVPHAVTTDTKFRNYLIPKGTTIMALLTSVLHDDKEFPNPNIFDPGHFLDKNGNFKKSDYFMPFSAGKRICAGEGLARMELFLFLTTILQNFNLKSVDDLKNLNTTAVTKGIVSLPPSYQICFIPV

[7] = Cmax in cynomolgus monkey at 2 mg/kg, iv; type: ADME, organism-based, Macaca fascicularis; conditions: in vivo
[8] = Half-life in rat at 5 mg/kg, po by LC-MS/MS analysis; type: ADME, organism-based; conditions: in vivo
[9] = Oral bioavailability in rat at 5 mg/kg by LC-MS/MS analysis; type: ADME, organism-based; conditions: in vivo
[10] = Apparent volume of distribution in rat at 2 mg/kg, iv by LC-MS/MS analysis; type: ADME, organism-based; conditions: in vivo, read-out: Vz
[11] = Apparent volume of distribution in ICR mouse at 2 mg/kg, iv by LC-MS/MS analysis; type: ADME, organism-based; conditions: in vivo, read-out: Vz
[12] = AUC in rat at 2 mg/kg, iv by LC-MS/MS analysis; type: ADME, organism-based; conditions: in vivo
Cytochrome P450 2C9 = Cytochrome P450 2C9 (Homo sapiens, UniProt P11712); experiment: Inhibition of CYP2C9 in human liver microsomes using diclofenac as substrate preincubated for 5 mins followed by NADPH addition and measured after 10 mins by LC-MS/MS analysis; type: ADME, Microsome
Cytochrome P450 2C9, sequence (P11712 whole entry): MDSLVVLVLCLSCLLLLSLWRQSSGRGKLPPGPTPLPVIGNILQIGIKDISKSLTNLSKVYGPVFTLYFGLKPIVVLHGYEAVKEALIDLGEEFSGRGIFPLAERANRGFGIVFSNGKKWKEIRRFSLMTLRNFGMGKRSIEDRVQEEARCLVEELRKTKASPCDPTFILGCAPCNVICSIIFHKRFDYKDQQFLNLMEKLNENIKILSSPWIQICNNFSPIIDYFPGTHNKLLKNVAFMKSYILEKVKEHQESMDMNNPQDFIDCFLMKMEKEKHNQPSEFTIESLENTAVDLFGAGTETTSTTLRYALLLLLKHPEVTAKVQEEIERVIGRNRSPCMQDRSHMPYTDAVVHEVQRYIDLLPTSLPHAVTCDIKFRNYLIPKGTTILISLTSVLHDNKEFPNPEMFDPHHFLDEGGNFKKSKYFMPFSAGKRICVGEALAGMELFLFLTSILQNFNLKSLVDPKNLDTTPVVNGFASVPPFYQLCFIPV

[13] = Oral bioavailability in ICR mouse at 5 mg/kg by LC-MS/MS analysis; type: ADME, organism-based; conditions: in vivo
[14] = Half-life in ICR mouse at 5 mg/kg, po by LC-MS/MS analysis; type: ADME, organism-based; conditions: in vivo
[15] = Half-life in ICR mouse at 2 mg/kg, iv by LC-MS/MS analysis; type: ADME, organism-based; conditions: in vivo
Cytochrome P450 2C19 = Cytochrome P450 2C19 (Homo sapiens, UniProt P33261); experiment: Inhibition of CYP2C19 in human liver microsomes using S-mephenytoin as substrate preincubated for 5 mins followed by NADPH addition and measured after 45 mins by LC-MS/MS analysis; type: ADME, Microsome
Cytochrome P450 2C19, sequence (P33261 whole entry): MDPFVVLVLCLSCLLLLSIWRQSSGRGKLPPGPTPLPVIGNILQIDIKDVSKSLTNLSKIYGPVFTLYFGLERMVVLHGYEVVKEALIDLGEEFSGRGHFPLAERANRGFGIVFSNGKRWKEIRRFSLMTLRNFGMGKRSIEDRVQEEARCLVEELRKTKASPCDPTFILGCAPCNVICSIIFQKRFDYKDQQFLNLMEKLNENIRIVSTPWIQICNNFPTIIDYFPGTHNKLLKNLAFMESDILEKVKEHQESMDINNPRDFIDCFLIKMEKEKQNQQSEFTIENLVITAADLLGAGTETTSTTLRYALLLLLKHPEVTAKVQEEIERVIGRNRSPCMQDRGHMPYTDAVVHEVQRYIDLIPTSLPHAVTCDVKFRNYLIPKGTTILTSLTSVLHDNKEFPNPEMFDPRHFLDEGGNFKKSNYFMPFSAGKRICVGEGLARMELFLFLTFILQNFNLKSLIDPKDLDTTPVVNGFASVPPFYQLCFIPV

[16] = AUC in rat at 5 mg/kg, po by LC-MS/MS analysis; type: ADME, organism-based; conditions: in vivo
[17] = Oral clearance in rat at 5 mg/kg, po by LC-MS/MS analysis; type: ADME, organism-based; conditions: in vivo
[18] = AUC in ICR mouse at 2 mg/kg, iv by LC-MS/MS analysis; type: ADME, organism-based; conditions: in vivo
[19] = Permeability across apical to basolateral in human Caco-2 cells at 10 uM incubated for 120 mins by LC-MS/MS analysis; type: ADME, cell-based; conditions: read-out: permeability
Mus musculus = experiment: Reduction in blood glucose level in human GLP-1R knock-in mouse at 1 mg/kg, po pretreated for 1 to 4 hrs followed by glucose addition and measured upto 120 mins by glucose meter; type: functional, organism-based; conditions: time 180-360 min
[20] = Permeability across basolateral to apical side in human Caco-2 cells at 10 uM incubated for 120 mins by LC-MS/MS analysis; type: ADME, cell-based; conditions: read-out: permeability
[21] = AUC in ICR mouse at 5 mg/kg, po by LC-MS/MS analysis; type: ADME, organism-based; conditions: in vivo
[22] = Oral bioavailability in cynomolgus monkey at 20 mg/kg; type: ADME, organism-based, Macaca fascicularis; conditions: in vivo
Cytochrome P450 2D6 = Cytochrome P450 2D6 (Homo sapiens, UniProt P10635); experiment: Inhibition of CYP2D6 in human liver microsomes using dextromethorphan as substrate preincubated for 5 mins followed by NADPH addition and measured after 20 mins by LC-MS/MS analysis; type: ADME, Microsome
Cytochrome P450 2D6, sequence (P10635 whole entry): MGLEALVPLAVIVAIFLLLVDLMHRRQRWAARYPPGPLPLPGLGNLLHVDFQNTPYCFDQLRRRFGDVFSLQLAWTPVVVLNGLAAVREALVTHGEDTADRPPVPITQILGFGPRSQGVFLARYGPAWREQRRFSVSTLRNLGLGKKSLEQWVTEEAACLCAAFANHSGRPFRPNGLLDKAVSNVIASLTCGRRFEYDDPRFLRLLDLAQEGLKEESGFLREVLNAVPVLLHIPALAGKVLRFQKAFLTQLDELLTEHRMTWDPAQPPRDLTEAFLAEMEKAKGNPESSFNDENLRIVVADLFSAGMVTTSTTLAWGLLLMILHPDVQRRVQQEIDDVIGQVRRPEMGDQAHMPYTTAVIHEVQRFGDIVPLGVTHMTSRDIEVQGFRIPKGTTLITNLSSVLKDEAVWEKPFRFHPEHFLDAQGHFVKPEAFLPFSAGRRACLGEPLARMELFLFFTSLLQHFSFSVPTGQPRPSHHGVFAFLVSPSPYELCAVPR

[23] = Half-life in rat at 2 mg/kg, iv by LC-MS/MS analysis; type: ADME, organism-based; conditions: in vivo

Compound | Tmax [1] | Cmax [2] | Cmax [3] | pIC50 (Cytochrome P450 3A4 [4]) | half-life [5] | pIC50 (Cytochrome P450 3A4 [6]) | pIC50 (Cytochrome P450 1A2) | pIC50 (Cytochrome P450 2C8) | Cmax [7] | half-life [8] | bioavailability [9] | Vd [10] | Vd [11] | AUC [12] | pIC50 (Cytochrome P450 2C9) | bioavailability [13] | half-life [14] | half-life [15] | pIC50 (Cytochrome P450 2C19) | AUC [16] | other results
O=C(O)c1ccc2nc(CN3CCC(c4cccc(OCc5ccc(C6COC6)cc5F)n4)CC3)n(C[C@@H]3CCO3)c2c1 | 1.39 h | 2090 ng/mL | 190 ng/mL | < 5.00 | 2.17 h | < 5.00 | < 5.00 | 6.66 | 207 nM | 0.84 h | 12.8% | 1.37 L/kg | 12.2 L/kg | 530 ng·h/mL | < 5.00 | 53.1% | 3.86 h | 7.04 h | < 5.00 | 180 ng·h/mL | CL/F [17]: 52.8 mL/min/kg; AUC [18]: 1670 ng·h/mL; Papp A→B at 2 h, 10 µM [19]: 3.14 ×10⁻⁶ cm/s; Activity (Mus musculus): Active; Papp B→A at 2 h, 10 µM [20]: 16.5 ×10⁻⁶ cm/s; AUC [21]: 3000 ng·h/mL; bioavailability [22]: 32.8%; pIC50 (Cytochrome P450 2D6): < 5.00; half-life [23]: 0.21 h
N#Cc1ccc(COc2cccc(C3CCN(Cc4nc5ccc(C(=O)O)cc5n4C[C@@H]4CCO4)CC3)n2)c(F)c1 [DANUGLIPRON] | 1.21 h | 2840 ng/mL | 110 ng/mL | < 5.00 | 1.87 h | < 5.00 | < 5.00 | 5.90 | 670 nM | 1.33 h | 10.2% | 1.98 L/kg | 4.26 L/kg | 520 ng·h/mL | < 5.00 | 54.2% | 1.62 h | 2.46 h | < 5.00 | 170 ng·h/mL | CL/F [17]: 554 mL/min/kg; AUC [18]: 1670 ng·h/mL; Papp A→B at 2 h, 10 µM [19]: 3.93 ×10⁻⁶ cm/s; Activity (Mus musculus): Active; Papp B→A at 2 h, 10 µM [20]: 21.7 ×10⁻⁶ cm/s; AUC [21]: 2280 ng·h/mL; bioavailability [22]: 3.41%; pIC50 (Cytochrome P450 2D6): < 5.00; half-life [23]: 0.32 h
